{
  "source": "paper PMC5521788",
  "about": "“In Vitro comparison of ^213Bi- and ^177Lu-radiation for peptide receptor radionuclide therapy” (PLoS ONE, 2017)",
  "key": {"[1]": {"tested_on": "BON cells", "experiment": "Clonogenic assay, BON cells", "assay_type": "cell-based, human", "protocol": "(§1) Before irradiation of the cells, 500 cells were seeded in 6-well plates (pre-coated with poly-l-lysine) 24 h before the experiment. […] After irradiation, internalization medium containing radioligand was removed. […] Every 2 or 3 d, medium was replaced by fresh culture medium. […] The 6-well plates containing colonies were scanned with a HP-scanner at 200 dpi. The colonies in each well were counted by a clonocounter. The survival was plotted as a function of absorbed dose and fitted to linear-quadratic (LQ) or linear-exponential curves. The cell absorbed dose during the incubation period was calculated with a dosimetry model of the 6-well plate, as described by Verwijnen et al.. The 3.5 cm diameter well cavity was modeled in the Monte Carlo radiation transport code Monte Carlo N-Particle […] (version 2.5.0, Los Alamos National Laboratory, USA) with homogeneously distributed radioactivity over the 2 mL volume aqueous liquid within the cavity."}, "[2]": {"tested_on": "CA20948 cells", "experiment": "Clonogenic assay, CA20948 cells", "assay_type": "cell-based, rat", "protocol": "as §1, with “cavity. […] The division the layers of the well were as followed; 18 layers of 100 μm and 8 layers of 25 μm at the bottom of the well. […] D (25μm←fluid)=Ãfluid(1)×S(25μm←fluid)=∫T0TAfluide^-λtdt×S(25μm←fluid) […] The dosimetry for the specific uptake of radioactivity in the cells was calculated with the multicellular dosimetry code MIRD cell. […] Initially 500 cells were plated over the 9.62 cm^2 surface of the well. For evenly distributed cells over the surface the mean inter-cell distance would be 770 μm. In reality the cells were more clustered to the center of the well. […] The number of disintegrations within each cell (or Time-Integrated Activity per cell ã) was calculated by integration of the decay function of ^177Lu and ^213Bi and its progeny over the 12 d irradiation time multiplied by the ƒint and ƒmem per cell. This assumes that ƒmem will remain bound to the cells and ƒint remains trapped in the cell over a period of 12 d.” for “cavity.”"}},
  "data": [
    {"smiles": "O=C([O-])CN(CCN(CC(=O)[O-])CC(=O)[O-])CCN(CC(=O)[O-])CC(=O)[O-].[213Bi+3]", "note": "[^213Bi-DTPA]", "values": [
      {"measurement": "RBE at D10 compared to ^137Cs irradiation", "setting": "[1]", "result": 1.8},
      {"measurement": "LQ model parameter α", "setting": "[1]; 1 h exposure, colonies after 12 d, n = 3", "result": "0.87±0.1 /Gy"},
      {"measurement": "D10 (absorbed dose of 10% survival)", "setting": "[1]; 1 h incubation, 12 d colony growth", "result": 2.5, "unit": "Gy"},
      {"measurement": "factor advantage in cell killing compared to ^177Lu-DOTATATE", "setting": "[2]; 10% survival, CA20948 (abstract)", "result": 6},
      {"measurement": "RBE at D10 compared to ^137Cs irradiation", "setting": "[2]; CA20948", "result": 2.0},
      {"measurement": "LQ model parameter α", "setting": "[2]; CA20948, 1 h exposure, colonies after 12 d, n = 3", "result": "0.74±0.08 /Gy"},
      {"measurement": "D10 (absorbed dose of 10% survival)", "setting": "[2]; CA20948, 1 h incubation, 12 d colony growth", "result": 2.6, "unit": "Gy"},
      {"measurement": "RBE at 10% cell survival", "setting": "[2]; in both low (BON) and high (CA20948) SSTR2 expressing cell lines", "result": "1.5–2.0"}
    ]}
  ]
}
